{"source": "ChEMBL document CHEMBL5244205", "about": "“Discovery of tricyclic dipyrrolopyridine derivatives as novel JAK inhibitors” (Bioorg Med Chem, 2017)", "key": {"[1]": {"test": "Clearance in Sprague-Dawley rat at 1 mg/kg, iv measured up to 24 hrs by LC-MS/MS analysis", "assay_type": "ADME, organism-based", "conditions": "in vivo"}, "[2]": {"test": "Volume of distribution in Sprague-Dawley rat at 1 mg/kg, iv measured up to 24 hrs by LC-MS/MS analysis", "assay_type": "ADME, organism-based", "conditions": "in vivo"}, "[3]": {"test": "Half life in Sprague-Dawley rat at 1 mg/kg, iv measured up to 24 hrs by LC-MS/MS analysis", "assay_type": "ADME, organism-based", "conditions": "in vivo"}, "[4]": {"test": "AUC (0 to 24 hrs) in Sprague-Dawley rat at 1 mg/kg, iv measured up to 24 hrs by LC-MS/MS analysis", "assay_type": "ADME, organism-based", "design": "dose 1 mg/kg, time < 24 hrs, route iv", "conditions": "in vivo"}, "[5]": {"test": "Cmax in Sprague-Dawley rat at 1 mg/kg, po measured up to 24 hrs by LC-MS/MS analysis", "assay_type": "ADME, organism-based", "design": "time < 24 hrs, dose 1 mg/kg, route po", "conditions": "in vivo"}, "[6]": {"test": "Half life in Sprague-Dawley rat at 1 mg/kg, po measured up to 24 hrs by LC-MS/MS analysis", "assay_type": "ADME, organism-based", "conditions": "in vivo"}, "[7]": {"test": "AUC (0 to 24 hrs) in Sprague-Dawley rat at 1 mg/kg, po measured up to 24 hrs by LC-MS/MS analysis", "assay_type": "ADME, organism-based", "design": "dose 1 mg/kg, time < 24 hrs, route po", "conditions": "in vivo"}, "[8]": {"test": "Oral availability in Sprague-Dawley rat at 1 mg/kg measured up to 24 hrs by LC-MS/MS analysis", "assay_type": "ADME, organism-based", "conditions": "in vivo"}, "[9]": {"test": "Tmax in Sprague-Dawley rat at 1 mg/kg, po measured up to 24 hrs by LC-MS/MS analysis", "assay_type": "ADME, organism-based", "conditions": "in vivo"}, "[10]": {"target": "Tyrosine-protein kinase ABL1 (Homo sapiens, UniProt P00519)", "test": "Inhibition of ABL (unknown origin)"}, "[11]": {"target": "Tyrosine-protein kinase BTK (Homo sapiens, UniProt Q06187)", "test": "Inhibition of BTK (unknown origin)"}, "[12]": {"target": "Tyrosine-protein kinase CSK (Homo sapiens, UniProt P41240)", "test": "Inhibition of CSK (unknown origin)"}, "[13]": {"target": "Epidermal growth factor receptor (Homo sapiens, UniProt P00533)", "sequence (P00533 whole entry)": "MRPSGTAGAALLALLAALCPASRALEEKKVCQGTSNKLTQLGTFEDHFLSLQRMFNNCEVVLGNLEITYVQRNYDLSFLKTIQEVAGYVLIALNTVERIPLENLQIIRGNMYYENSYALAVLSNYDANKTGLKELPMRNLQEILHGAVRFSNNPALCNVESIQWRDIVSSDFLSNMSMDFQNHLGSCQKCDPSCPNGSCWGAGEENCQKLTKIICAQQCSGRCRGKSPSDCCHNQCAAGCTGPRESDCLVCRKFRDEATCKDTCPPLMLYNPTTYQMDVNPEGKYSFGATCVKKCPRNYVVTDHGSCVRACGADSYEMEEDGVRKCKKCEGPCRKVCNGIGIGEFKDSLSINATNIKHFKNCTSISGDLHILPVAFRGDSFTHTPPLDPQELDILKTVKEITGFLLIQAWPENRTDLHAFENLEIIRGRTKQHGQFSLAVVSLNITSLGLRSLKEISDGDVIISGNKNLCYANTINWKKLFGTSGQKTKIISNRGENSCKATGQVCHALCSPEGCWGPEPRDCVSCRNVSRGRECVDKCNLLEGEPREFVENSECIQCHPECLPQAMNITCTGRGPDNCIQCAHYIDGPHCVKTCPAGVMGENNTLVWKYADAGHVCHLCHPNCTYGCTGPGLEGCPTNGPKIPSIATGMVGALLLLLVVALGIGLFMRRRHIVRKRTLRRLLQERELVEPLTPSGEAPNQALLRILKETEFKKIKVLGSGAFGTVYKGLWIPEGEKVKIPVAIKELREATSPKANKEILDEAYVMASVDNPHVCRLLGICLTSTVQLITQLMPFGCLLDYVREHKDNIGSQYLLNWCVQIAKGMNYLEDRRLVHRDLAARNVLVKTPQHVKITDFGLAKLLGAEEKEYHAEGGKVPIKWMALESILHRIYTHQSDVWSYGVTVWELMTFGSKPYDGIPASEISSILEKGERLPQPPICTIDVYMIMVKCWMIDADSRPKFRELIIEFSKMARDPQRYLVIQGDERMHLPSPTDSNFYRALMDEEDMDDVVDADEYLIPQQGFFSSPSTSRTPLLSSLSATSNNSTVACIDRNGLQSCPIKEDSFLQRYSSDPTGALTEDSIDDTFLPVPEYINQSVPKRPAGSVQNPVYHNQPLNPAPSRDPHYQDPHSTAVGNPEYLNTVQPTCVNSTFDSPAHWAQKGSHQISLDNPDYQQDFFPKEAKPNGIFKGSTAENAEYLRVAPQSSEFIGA", "test": "Inhibition of EGFR (unknown origin)"}, "Ephrin type-A receptor 2": {"target": "Ephrin type-A receptor 2 (Homo sapiens, UniProt P29317)", "test": "Inhibition of EphA2 (unknown origin)"}, "Focal adhesion kinase 1": {"target": "Focal adhesion kinase 1 (Homo sapiens, UniProt Q05397)", "test": "Inhibition of FAK (unknown origin)"}, "[14]": {"target": "Insulin-like growth factor 1 receptor (Homo sapiens, UniProt P08069)", "sequence (P08069 31-736 limits assumed)": "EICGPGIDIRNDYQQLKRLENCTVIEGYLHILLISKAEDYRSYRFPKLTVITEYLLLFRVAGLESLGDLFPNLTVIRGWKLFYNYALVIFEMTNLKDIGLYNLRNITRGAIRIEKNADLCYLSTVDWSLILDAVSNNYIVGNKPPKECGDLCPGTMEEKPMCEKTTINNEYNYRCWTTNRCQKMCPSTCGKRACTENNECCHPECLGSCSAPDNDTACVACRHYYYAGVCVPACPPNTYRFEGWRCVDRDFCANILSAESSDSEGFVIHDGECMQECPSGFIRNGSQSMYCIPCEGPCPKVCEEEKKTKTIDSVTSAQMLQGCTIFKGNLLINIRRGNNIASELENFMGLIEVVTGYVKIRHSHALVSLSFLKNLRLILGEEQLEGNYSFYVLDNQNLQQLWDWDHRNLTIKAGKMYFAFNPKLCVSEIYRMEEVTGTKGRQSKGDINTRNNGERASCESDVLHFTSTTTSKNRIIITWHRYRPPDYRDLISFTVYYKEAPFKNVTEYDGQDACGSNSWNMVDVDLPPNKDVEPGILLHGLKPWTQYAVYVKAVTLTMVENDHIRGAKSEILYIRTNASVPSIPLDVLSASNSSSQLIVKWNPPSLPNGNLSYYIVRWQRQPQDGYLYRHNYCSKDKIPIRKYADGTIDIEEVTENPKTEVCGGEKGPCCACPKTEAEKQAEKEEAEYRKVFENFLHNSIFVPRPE", "sequence (P08069 741-1367 limits assumed)": "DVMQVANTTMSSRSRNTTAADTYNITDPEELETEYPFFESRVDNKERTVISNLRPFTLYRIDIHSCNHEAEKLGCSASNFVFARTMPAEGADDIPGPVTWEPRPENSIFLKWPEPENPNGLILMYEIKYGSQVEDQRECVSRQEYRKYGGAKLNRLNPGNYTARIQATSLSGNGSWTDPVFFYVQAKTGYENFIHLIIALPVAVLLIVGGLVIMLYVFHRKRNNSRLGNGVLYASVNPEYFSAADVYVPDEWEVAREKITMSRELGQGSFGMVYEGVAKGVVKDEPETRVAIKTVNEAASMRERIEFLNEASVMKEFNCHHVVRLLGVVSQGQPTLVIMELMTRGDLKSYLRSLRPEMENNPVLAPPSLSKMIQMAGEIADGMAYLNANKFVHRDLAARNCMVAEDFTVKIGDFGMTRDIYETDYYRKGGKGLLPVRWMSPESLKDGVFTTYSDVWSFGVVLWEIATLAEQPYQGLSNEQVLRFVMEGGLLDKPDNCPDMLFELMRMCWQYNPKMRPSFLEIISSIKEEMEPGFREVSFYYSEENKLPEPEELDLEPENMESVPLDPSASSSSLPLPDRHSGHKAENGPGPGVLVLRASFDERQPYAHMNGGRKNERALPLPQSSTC", "test": "Inhibition of IGF1R (unknown origin)"}, "[15]": {"target": "Tyrosine-protein kinase ITK/TSK (Homo sapiens, UniProt Q08881)", "test": "Inhibition of ITK (unknown origin)"}, "[16]": {"test": "Inhibition of SYK (unknown origin)", "design": "species or system Homo sapiens"}, "Angiopoietin-1 receptor": {"target": "Angiopoietin-1 receptor (Homo sapiens, UniProt Q02763)", "test": "Inhibition of TIE2 (unknown origin)"}, "[17]": {"target": "Tyrosine-protein kinase ZAP-70 (Homo sapiens, UniProt P43403)", "test": "Inhibition of ZAP70 (unknown origin)"}, "[18]": {"target": "Bone morphogenetic protein receptor type-1A (Homo sapiens, UniProt P36894)", "sequence (P36894 whole entry)": "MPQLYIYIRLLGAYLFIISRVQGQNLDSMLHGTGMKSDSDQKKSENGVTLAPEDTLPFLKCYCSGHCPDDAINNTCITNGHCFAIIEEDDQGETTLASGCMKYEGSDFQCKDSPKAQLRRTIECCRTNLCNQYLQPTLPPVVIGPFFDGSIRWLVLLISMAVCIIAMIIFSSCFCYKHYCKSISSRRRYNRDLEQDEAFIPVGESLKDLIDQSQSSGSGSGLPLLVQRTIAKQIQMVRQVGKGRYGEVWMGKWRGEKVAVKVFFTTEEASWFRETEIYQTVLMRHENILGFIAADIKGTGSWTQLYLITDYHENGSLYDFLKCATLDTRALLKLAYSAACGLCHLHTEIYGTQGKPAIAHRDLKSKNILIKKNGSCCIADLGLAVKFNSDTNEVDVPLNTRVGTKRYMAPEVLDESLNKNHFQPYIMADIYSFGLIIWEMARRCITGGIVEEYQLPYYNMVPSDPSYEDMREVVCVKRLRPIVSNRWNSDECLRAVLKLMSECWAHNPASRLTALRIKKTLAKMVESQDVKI", "test": "Inhibition of BMPR1A (unknown origin)"}, "[19]": {"target": "Casein kinase I isoform delta (Homo sapiens, UniProt P48730)", "sequence (P48730 whole entry, canonical isoform)": "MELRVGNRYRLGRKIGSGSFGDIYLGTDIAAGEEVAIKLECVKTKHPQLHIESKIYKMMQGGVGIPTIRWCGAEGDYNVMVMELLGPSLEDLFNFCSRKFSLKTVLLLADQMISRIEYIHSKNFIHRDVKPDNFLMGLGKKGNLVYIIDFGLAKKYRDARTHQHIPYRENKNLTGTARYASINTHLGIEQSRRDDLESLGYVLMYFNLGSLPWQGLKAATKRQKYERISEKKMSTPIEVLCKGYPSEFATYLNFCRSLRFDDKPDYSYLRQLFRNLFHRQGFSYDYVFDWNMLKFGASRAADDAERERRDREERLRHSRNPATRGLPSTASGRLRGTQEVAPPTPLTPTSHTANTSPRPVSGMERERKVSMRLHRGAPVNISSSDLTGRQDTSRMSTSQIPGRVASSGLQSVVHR", "test": "Inhibition of CHKdelta (unknown origin)"}, "[20]": {"target": "Inhibitor of nuclear factor kappa-B kinase subunit beta (Homo sapiens, UniProt O14920)", "test": "Inhibition of IKKB (unknown origin)"}, "[21]": {"target": "Mitogen-activated protein kinase kinase kinase 1 (Homo sapiens, UniProt Q13233)", "test": "Inhibition of MAP3K1 (unknown origin)"}, "[22]": {"target": "MAP kinase-activated protein kinase 2 (Homo sapiens, UniProt P49137)", "sequence (P49137 whole entry)": "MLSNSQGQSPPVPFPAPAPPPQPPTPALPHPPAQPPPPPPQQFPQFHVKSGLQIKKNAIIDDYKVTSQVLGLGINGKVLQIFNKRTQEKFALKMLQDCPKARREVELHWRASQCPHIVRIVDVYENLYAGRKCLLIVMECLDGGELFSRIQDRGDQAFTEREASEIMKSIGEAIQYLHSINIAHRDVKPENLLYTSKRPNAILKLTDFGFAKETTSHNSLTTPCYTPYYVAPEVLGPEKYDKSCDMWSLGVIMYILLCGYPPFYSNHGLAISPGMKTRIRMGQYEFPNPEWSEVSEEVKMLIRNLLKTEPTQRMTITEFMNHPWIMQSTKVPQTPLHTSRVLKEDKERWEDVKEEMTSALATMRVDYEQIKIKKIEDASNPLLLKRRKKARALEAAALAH", "test": "Inhibition of MAPKAPK2 (unknown origin)"}, "[23]": {"target": "Mitogen-activated protein kinase 11 (Homo sapiens, UniProt Q15759)", "sequence (Q15759 whole entry)": "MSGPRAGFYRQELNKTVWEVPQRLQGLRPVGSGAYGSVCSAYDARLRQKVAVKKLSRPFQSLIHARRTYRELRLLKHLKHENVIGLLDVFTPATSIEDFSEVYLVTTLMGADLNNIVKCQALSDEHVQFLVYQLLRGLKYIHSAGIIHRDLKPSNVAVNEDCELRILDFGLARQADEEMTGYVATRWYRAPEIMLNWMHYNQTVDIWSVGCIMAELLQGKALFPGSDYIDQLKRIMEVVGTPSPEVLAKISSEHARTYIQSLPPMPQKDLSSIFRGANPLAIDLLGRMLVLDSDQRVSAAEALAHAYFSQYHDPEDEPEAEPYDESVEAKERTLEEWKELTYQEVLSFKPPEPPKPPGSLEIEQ", "test": "Inhibition of P38beta (unknown origin)"}, "[24]": {"target": "RAF proto-oncogene serine/threonine-protein kinase (Homo sapiens, UniProt P04049)", "test": "Inhibition of RAF1 (unknown origin)"}, "Cytochrome P450 3A4": {"target": "Cytochrome P450 3A4 (Homo sapiens, UniProt P08684)", "sequence (P08684 whole entry)": "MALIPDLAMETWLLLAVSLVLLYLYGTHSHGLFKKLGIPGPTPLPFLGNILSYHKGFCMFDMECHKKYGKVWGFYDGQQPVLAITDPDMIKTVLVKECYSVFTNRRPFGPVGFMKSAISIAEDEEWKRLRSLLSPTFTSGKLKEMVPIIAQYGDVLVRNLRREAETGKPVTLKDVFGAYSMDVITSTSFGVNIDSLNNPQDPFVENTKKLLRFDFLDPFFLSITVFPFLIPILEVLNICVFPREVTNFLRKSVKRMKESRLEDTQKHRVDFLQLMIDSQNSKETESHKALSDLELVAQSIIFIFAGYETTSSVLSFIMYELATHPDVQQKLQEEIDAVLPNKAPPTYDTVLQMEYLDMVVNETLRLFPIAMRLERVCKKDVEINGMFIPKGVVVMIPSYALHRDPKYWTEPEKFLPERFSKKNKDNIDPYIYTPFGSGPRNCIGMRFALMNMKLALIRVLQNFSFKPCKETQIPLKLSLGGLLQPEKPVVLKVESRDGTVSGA", "conditions": "microsomes, 20 min, 5 µM"}, "[25]": {"conditions": "pampa, pH 6.5, 2 h", "description": "Permeability of the compound in pH 6.5 incubated for 2 hrs by PAMPA based HPLC analysis"}}}
{"smiles": "C[C@@H]1CCN(C(=O)CC#N)C[C@@H]1n1ccc2cnc3[nH]cc(C#N)c3c21", "values": [{"measurement": "clearance", "setting": "[1]", "value": 20.2, "unit": "mL/min/kg"}, {"measurement": "Vd", "setting": "[2]", "value": 0.97, "unit": "L/kg"}, {"measurement": "half-life", "setting": "[3]", "value": 7.86, "unit": "h"}, {"measurement": "AUC(0-t) at 24 h", "setting": "[4]", "value": 1110, "unit": "ng·h/mL"}, {"measurement": "Cmax", "setting": "[5]", "value": 178, "unit": "ng/mL"}, {"measurement": "half-life", "setting": "[6]", "value": 3.99, "unit": "h"}, {"measurement": "AUC(0-t) at 24 h", "setting": "[7]", "value": 916, "unit": "ng·h/mL"}, {"measurement": "bioavailability", "setting": "[8]", "value": 82.4, "unit": "%"}, {"measurement": "Tmax", "setting": "[9]", "value": 0.33, "unit": "h"}, {"measurement": "IC50", "setting": "[10]", "value": "> 1", "unit": "µM"}, {"measurement": "IC50", "setting": "[11]", "value": "> 1", "unit": "µM"}, {"measurement": "IC50", "setting": "[12]", "value": "> 1", "unit": "µM"}, {"measurement": "IC50", "setting": "[13]", "value": "> 1", "unit": "µM"}, {"measurement": "IC50", "setting": "Ephrin type-A receptor 2", "value": "> 1", "unit": "µM"}, {"measurement": "IC50", "setting": "Focal adhesion kinase 1", "value": "> 1", "unit": "µM"}, {"measurement": "IC50", "setting": "[14]", "value": "> 1", "unit": "µM"}, {"measurement": "IC50", "setting": "[15]", "value": "> 1", "unit": "µM"}, {"measurement": "IC50", "setting": "[16]", "value": "> 1", "unit": "µM"}, {"measurement": "IC50", "setting": "Angiopoietin-1 receptor", "value": "> 1", "unit": "µM"}, {"measurement": "IC50", "setting": "[17]", "value": "> 1", "unit": "µM"}, {"measurement": "IC50", "setting": "[18]", "value": "> 1", "unit": "µM"}, {"measurement": "IC50", "setting": "[19]", "value": "> 1", "unit": "µM"}, {"measurement": "IC50", "setting": "[20]", "value": "> 1", "unit": "µM"}, {"measurement": "IC50", "setting": "[21]", "value": "> 1", "unit": "µM"}, {"measurement": "IC50", "setting": "[22]", "value": "> 1", "unit": "µM"}, {"measurement": "IC50", "setting": "[23]", "value": "> 1", "unit": "µM"}, {"measurement": "IC50", "setting": "[24]", "value": "> 1", "unit": "µM"}, {"measurement": "TDI", "setting": "Cytochrome P450 3A4", "value": 93, "unit": "%"}, {"measurement": "permeability", "setting": "[25]", "value": "14 10^-6 cm/s"}]}
